Measurements published in patent US8461183B2, “PPAR agonist compounds, preparation and uses” (Genfit, priority 2008, dated 2013).

Columns and labels:
hPPARα = biological target: T1, hPPARα (Homo sapiens, UniProt Q07869); assay: Gal4-hPPARα chimera transactivation (luciferase) in COS-7 cells; format: cell-based; settings: COS-7 cells, Gal4-hPPARα, 24 hours; for EC50: luciferase, read-out: PPARα EC50; for Emax: relative to maximum activation obtained with fenofibric acid, read-out: PPARα TOP % (maximum activation)
T1 construct: corresponding to the DEF domains (structural elements of the promoter of the PPARs: D=hinge, EF=ligand fixation domain and AF2 fixation site); expressed in transfected cells; host or cells: COS-7 (monkey kidney fibroblasts)
T1 sequence (Q07869 239-466 limits assumed): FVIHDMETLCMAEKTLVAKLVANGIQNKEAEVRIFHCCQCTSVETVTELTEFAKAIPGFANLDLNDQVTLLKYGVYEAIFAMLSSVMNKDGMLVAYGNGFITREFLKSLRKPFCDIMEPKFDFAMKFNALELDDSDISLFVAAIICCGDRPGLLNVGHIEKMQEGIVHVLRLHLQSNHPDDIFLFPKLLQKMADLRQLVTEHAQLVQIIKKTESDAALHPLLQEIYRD
In short: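 COS-7 cells transiently co-transfected with Gal4 DBD–human PPARα, γ or δ DEF-domain chimeras plus Gal4(RE)_TkpGL3 luciferase reporter (1/10), seeded serum-free, then compound-treated 24 h at 37 °C in 1% Ultroser. Luciferase read after lysis; EC50 and TOP % relative to maximal activation by fenofibric acid (α), rosiglitazone (γ) or GW501516 (δ).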

[1] = tested on: 3T3-L1 murine pre-adipocytes; assay: PPARγ functional effect: adipogenesis in 3T3-L1 pre-adipocytes (triglycerides, adiponectin); format: cell-based, Mus musculus; settings: 3T3-L1, 9 days of treatment, 30 nM to 30 μM
Procedure: The functional effect of activation of PPARγ is evaluated in vitro on a line of pre-adipocyte cells 3T3-L1 (Thompson G M et al., 2004) by measuring the concentration of intracellular triglycerides and the concentration of adiponectin secreted in the culture medium after 9 days of treatment with the compounds according to the invention.
At confluence, the cells were then rinsed with PBS (Phosphate Buffered Saline solution) and the culture medium was replaced with DMEM 4.5 g/L glucose (10% FCS, 1% L-glutamine, 100 units/mL penicillin and 100 μg/mL streptomycin, 0.25 mM) containing a cocktail for initiation of adipocyte differentiation (IBMX (3-isobutyl-1-methylxanthine Sigma; 17018), 0.1 μM dexamethasone (Sigma; D1756) and 0.4 μM of insulin (Sigma; I2643). The cells were also treated with the compounds according to the invention (1 μL of solubilized compound/mL of medium, 200 μL per well).
After 2 days of incubation, the cells were washed with PBS and the differentiation medium was replaced with DMEM 4.5 g/L of glucose supplemented with 10% FCS, 1% L-glutamine, 100 units/mL penicillin and 100 μg/mL streptomycin, 0.4 μM insulin, and the compounds according to the invention for the purpose of completing cellular differentiation and obtaining adipocytes. The medium was changed every 2 days until total differentiation. After culture for 9 days, the treatment was stopped by withdrawing the culture medium, which was stored for assaying secreted adiponectin. The cells were then washed twice with PBS and placed in isopropanol for membrane permeabilization. The content of intracellular triglycerides was evaluated immediately.
Quantification of intracellular triglycerides was performed with the “Triglyceride Enzymatic PAP1000” kit (bioMérieux; 61238) according to the supplier's recommendations. Secreted adiponectin was measured in the culture medium using the “Mouse Adiponectin/Acrp30 Elisa Kit” kit (R&D Systems; DY1119) according to the supplier's recommendations.

Row | EC50 (hPPARα) [nM] | Emax (hPPARα) [%] | SMILES | accumulation of triglycerides in adipocytes [1] | secretion of adiponectin [1]
1 | 143 | 48.3 | COc1nc(-c2ccccc2)ccc1COc1ccc(OCC(=O)O)cc1 [Cpd 2, 2-(4-((2-methoxy-6-phenylpyridin-3-yl)methoxy)phenoxy)ethanoic acid] | – | –
2 | 1470 | 66.7 | COc1nc(-c2ccccc2)ccc1CNc1ccc(OCC(=O)O)cc1 [Cpd 4, 2-(4-(((2-methoxy-6-phenylpyridin-3yl)methyl)amino)phenoxy)ethanoic acid] | – | –
3 | 2370 | 68 | COc1nc(-c2ccccc2)ccc1CNc1ccc(CCC(=O)O)cc1 [Cpd 19, 3-(4-(((2-methoxy-6-phenylpyridin-3-yl)methyl)amino)phenyl)propanoic acid] | dose-dependent stimulation | dose-dependent stimulation
4 | 371 | 76.8 | COc1nc(-c2ccc(C(F)(F)F)cc2)ccc1COc1ccc(OCC(=O)O)cc1 [Cpd 24, 2-(4-((2-methoxy-6-(4-(trifluoromethyl)phenyl)pyridin-3-yl)methoxy)-phenoxy)ethanoic acid] | dose-dependent stimulation | dose-dependent stimulation
